Reference: patent publication US7786145B2, “Cyanoguanidine-based azole compounds useful as malonyl-CoA decarboxylase inhibitors” (Chugai Seiyaku Kabushiki Kaisha, priority 2003, dated 2010)

Legend:
[1] = biological target: T1, hMCD (malonyl-CoA decarboxylase) (Homo sapiens, UniProt O95822); experiment: In Vitro MCD Inhibitory Assay; format: biochemical
T1 sequence (O95822 40-493): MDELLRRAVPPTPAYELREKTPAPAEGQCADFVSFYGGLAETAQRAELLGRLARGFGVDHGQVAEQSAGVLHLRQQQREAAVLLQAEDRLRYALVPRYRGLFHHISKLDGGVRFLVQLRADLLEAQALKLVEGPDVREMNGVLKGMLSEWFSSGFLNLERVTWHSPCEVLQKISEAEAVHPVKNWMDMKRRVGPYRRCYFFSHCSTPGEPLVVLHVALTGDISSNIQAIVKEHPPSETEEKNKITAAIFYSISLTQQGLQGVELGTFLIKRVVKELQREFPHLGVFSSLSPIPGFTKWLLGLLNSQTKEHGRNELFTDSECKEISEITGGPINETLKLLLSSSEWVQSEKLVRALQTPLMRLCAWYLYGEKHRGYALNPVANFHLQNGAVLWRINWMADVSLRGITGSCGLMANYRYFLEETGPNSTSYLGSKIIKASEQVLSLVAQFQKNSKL
Method: In Vitro MCD Inhibitory Assay:
The conversion of […] was assayed using a modified protocol as previously described by Kim, Y. S. and Kolattukudy, P. E. in 1978 (Arch. Biochem. Biophys 190:585 (1978)). As shown in eq. 1-3, the establishment of the kinetic equilibrium between malate/NAD and oxaloacetate/NADH was catalyzed by malic dehydrogenase (eq. 2). […] The accumulation of NADH can be continuously followed by monitoring the increase of fluorescence emission at 460 nm on a fluorescence plate reader. The fluorescence plate reader was calibrated using the authentic acetyl-CoA from Sigma. For a typical 96-well plate assay, the increase in the fluorescence emission (λex=360 nm, λem=460 nm, for NADH) in each well was used to calculate the initial velocity of hMCD. Each 50 μL assay contained 10 mM phosphate buffered saline (Sigma), pH 7.4, 0.05% Tween-20, 25 mM K2HPO4—KH2PO4 (Sigma), 2 mM Malate (Sigma), 2 mM NAD (Boehringer Mannheim), 0.786 units of MD (Roche Chemicals), 0.028 unit of CS (Roche Chemicals), 5-10 nM hMCD, and varying amounts of MCA substrate. Assays were initiated by the addition of MCA, and the rates were corrected for the background rate determined in the absence of hMCD.

[2] = system: Isolated Working Rat Hearts; experiment: Glucose oxidation in isolated working rat hearts; set-up: unit not given here; details: DMSO control
Method: Isolated Working Rat Heart Assay Protocol
Isolated working hearts from male Sprague-Dawley rats (300-350 g) are subjected to a 60-minute aerobic perfusion period. The working hearts are perfused with 95% O2, 5% CO2 with a modified Krebs-Henseleit solution containing 5 mM glucose; 100 μU/mL insulin; 3% fatty acid-free BSA; 2.5 mM free Ca^2+, and 0.4 to 1.2 mmol/L palmitate (Kantor et al., Circulation Research 86:580-588(2000)). The test compound is added 5 minutes before the perfusion period. DMSO (0.05%) is used as control.
Measurement of Glucose Oxidation Rates
Samples were taken at 10-minute intervals for measurements of experimental parameters. Glucose oxidation rates are determined by the quantitative collection of ^14CO2 produced by hearts perfused with buffer containing [U14]-Glucose (R. Barr and G. Lopaschuk, in “Measurement of cardiovascular function”, McNeill, J. H. ed., Chapter 2, CRC press, New York (1997)). After the perfusion, the ^14CO2 from the perfusae is subsequently released by injecting 1 mL of perfusate into sealed test tube containing 1 mL of 9N H2SO4. The tube was sealed with a rubber stopper attached to a scintillation vial containing a piece of filter papers saturated with 300 μl of hyamine hydroxide. The scintillation vials with filter papers were then removed and Ecolite Scintillation Fluid added. Samples were counted by standard procedures as described above. Average rates of glucose oxidation for each phase of perfusion are expressed as μmol/min/g dry wt as described above.
Rates of fatty acid oxidation are determined using the same method as described above for glucose oxidation rate measurement using [^14C]palmitate or by the quantitative collection of ^3H2O produced by hearts perfused with buffer containing [5-^3H]palmitate (R. Barr and G. Lopaschuk, in “Measurement of cardiovascular function”, McNeill, J. H. ed., Chapter 2, CRC press, New York (1997)). ^3H2O was separated from [5-^3H]palmitate by treating 0.5 mL buffer samples with 1.88 mL of a mixture of chloroform/methanol (1:2 v:v) and then adding 0.625 mL of chloroform and 0.625 mL of a 2 M KCl/HCl solution. The sample is centrifuged for 10 min and aqueous phase was removed and treated with a mixture of 1 mL of chloroform, 1 mL of methanol and 0.9 mL KCl/HCl with a ration of 1:1:0.9. The aqueous layer was then counted for total ^3H2O determination. […] Average rates of fatty acid oxidation for each phase of perfusion are expressed as nmol/min/g dry wt after taking consideration the dilution factor. Active compounds are characterized by an increase in glucose oxidation and/or decrease in fatty acid oxidation as compared to the control experiments (DMSO). The compounds that caused statistically significant increases in glucose oxidation and/or decrease in fatty acid oxidation are considered to be active. Statistical significance was calculated using the Student's t test for paired or unpaired samples, as appropriate. The results with P<0.05 are considered to be statistically significant.

[3] = system: breast carcinoma cells; details: cited from earlier work
[4] = system: CPT-I liver isoform; details: liver isoform of CPT-I; read-out: IC50 of malonyl-CoA inhibition; cited from earlier work
[5] = system: CPT-I muscle isoform; details: muscle isoform of CPT-I; read-out: IC50 of malonyl-CoA inhibition; cited from earlier work

| SMILES | Ki ([1]; Table 1, MCD inhibition) [µM] | also measured |
| --- | --- | --- |
| COc1ccc(NC(=NC#N)Nc2ccc3nc(S)sc3c2)cc1 [CBM-000302018] | 0.133 | – |
| CCCN(/C(=N/C#N)Nc1ccccc1)c1ccc2nc(S)sc2c1 [CBM-000302043] | 0.0072 | – |
| N#C/N=C(\Nc1ccc(OC(F)(F)F)cc1)Nc1ccc2nc(S)sc2c1 [CBM-000302047, N-cyano-N′-(2-mercapto-benzothiazol-6-yl)-N″-(4-trifluoromethoxy-phenyl)guanidine] | 0.242 | – |
| CCCCOc1ccc(NC(=NC#N)Nc2ccc3nc(S)sc3c2)cc1 [CBM-000302048] | 0.0351 | – |
| CCOc1ccc(NC(=NC#N)Nc2ccc3nc(S)sc3c2)cc1 [CBM-000302049] | 0.448 | – |
| CCCN(C(=NC#N)Nc1ccc(OC)cc1)c1ccc2nc(S)sc2c1 [CBM-000302050] | 0.0152 | – |
| CCCN(/C(=N/C#N)Nc1ccccc1)c1ccc2nc(S)sc2c1 [CBM-000302051] | 0.0056 | – |
| CCCN(C(=NC#N)Nc1ccc(OC(F)(F)F)cc1)c1ccc2nc(S)sc2c1 [CBM-000302052] | 0.0671 | GOX [2]: 131; Ki ([1]; Table 2, MCD inhibition): 0.0671 µM |
| COc1ccc(NC(=NC#N)N(CC(C)C)c2ccc3nc(S)sc3c2)cc1 [CBM-000302064] | 0.0071 | – |
| CC(C)CN(C(=NC#N)Nc1ccc(OC(F)(F)F)cc1)c1ccc2nc(S)sc2c1 [CBM-000302065] | 0.0225 | – |
| COC(=O)c1ccc(NC(=NC#N)N(CC(C)C)c2ccc3nc(S)sc3c2)cc1 [CBM-000302073] | 0.0047 | – |
| CCCN(C(=NC#N)Nc1ccc(C(F)(F)F)cc1)c1ccc2nc(S)sc2c1 [CBM-000302075] | 0.0035 | GOX [2]: 230; Ki ([1]; Table 2, MCD inhibition): 0.0035 µM |
| CC(C)CN(C(=NC#N)Nc1ccc(C(F)(F)F)cc1)c1ccc2nc(S)sc2c1 [CBM-000302076] | 0.0824 | – |
| CC(C)CN(C(=NC#N)Nc1ccc(C(=O)O)cc1)c1ccc2nc(S)sc2c1 [CBM-000302088] | 0.0003 | – |
| CCN(/C(=N/C#N)Nc1ccc(C(F)(F)F)cc1)c1ccc2nc(S)sc2c1 [CBM-000302107, N-cyano-N′-ethyl-N′-(2-mercapto-benzothiazol-6-yl)-N″-(4-trifluoromethyl-phenyl)guanidine] | 0.0017 | GOX [2]: 290; Ki ([1]; Table 2, MCD inhibition): 0.0017 µM |
| CCCN(C(=NC#N)Nc1ccc(C(=O)O)cc1)c1ccc2nc(S)sc2c1 [CBM-000302112] | 0.0015 | – |
| CCCCN(/C(=N/C#N)Nc1cccnc1)c1ccc2nc(S)sc2c1 [CBM-000302113] | 0.11 | – |
| CCCCN(C(=NC#N)Nc1cccc(C(F)(F)F)c1)c1ccc2nc(S)sc2c1 [CBM-000302114] | 0.21 | – |
| CC(C)CN(C(=NC#N)Nc1cccc(C(F)(F)F)c1)c1ccc2nc(S)sc2c1 [CBM-000302115] | 0.32 | – |
| CN(C(=NC#N)Nc1ccc(C(F)(F)F)cc1)c1ccc2nc(S)sc2c1 [CBM-000302167] | 0.002 | GOX [2]: 239; Ki ([1]; Table 2, MCD inhibition): 0.002 µM |
| CCN(C(=NC#N)Nc1ccc(C(N)=O)cc1)c1ccc2nc(S)sc2c1 [CBM-000302189] | 0.0028 | GOX [2]: 96; Ki ([1]; Table 2, MCD inhibition): 0.0028 µM |
| CCN(C(=NC#N)Nc1ccc(C(=O)NCC(C)C)cc1)c1ccc2nc(S)sc2c1 [CBM-000302243] | 0.0242 | – |
| CCCCNC(=O)c1ccc(NC(=NC#N)N(CC)c2ccc3nc(S)sc3c2)cc1 [CBM-000302244] | 0.0056 | GOX [2]: 152; Ki ([1]; Table 2, MCD inhibition): 0.0056 µM |
| CCN(C(=NC#N)NCc1ccc(C(F)(F)F)cc1)c1ccc2nc(S)sc2c1 [CBM-000302290] | 0.0824 | – |
| CCN(C(=NC#N)NCc1ccc(OC(F)(F)F)cc1)c1ccc2nc(S)sc2c1 [CBM-000302291] | 0.0495 | – |
| CC(C)N(/C(=N/C#N)Oc1ccccc1)c1ccc2nc(S)sc2c1 [CBM-000302339, 3-Cyano-1-isopropyl-1-(2-mercapto-benzothiazol-6-yl)-2-phenyl-isourea] | 0.0059 | – |
| CCCCCCCCCCCCCCOc1ccc(C(=O)O)o1 [TOFA, 5-(tetradecyloxy)-2-furoic acid] | – | malonyl-CoA level [3]: 60 % of the control |
| CC(C)(COP(=O)(O)OP(=O)(O)OC[C@H]1O[C@@H](n2cnc3c(N)ncnc32)[C@H](O)[C@@H]1OP(=O)(O)O)[C@@H](O)C(=O)NCCC(=O)NCCSC(=O)CC(=O)O [malonyl-CoA] | – | IC50 [4]: 2.5 µM; IC50 [5]: 0.03 µM |
